Reference: article PMC10526274, “Epithelial-Immune Cell Crosstalk Determines the Activation of Immune Cells In Vitro by the Human Cathelicidin LL-37 at Low Physiological Concentrations” (Biomolecules, 2023)
Where “and” joins values, the source holds several entries; their conditions need not be identical. Equal values may be shown once.

Tested on: Caco-2/moDCs co-culture
Experiment: Multiplex xMAP cytokine levels, Caco-2/moDCs co-culture stimulated with LL-37
Format: cell-based, human
Conditions: moDCs/Caco-2 co-culture, 1 µM LL-37, 24 h, n=2
Method: Caco-2 cell line (ATCC HTB-37) was cultured in a humidified CO2-incubator (5% CO2, 37 °C) in the complete DMEM/F12 (1:1) medium (Gibco, Waltham, MA, USA) containing 10% fetal bovine serum (FBS, Gibco) and 1X antibiotic–antimycotic solution (Gibco). To stabilize the cell phenotype, Caco-2 cells have been subcultivated three times before seeding on the filter supports. Then, Caco-2 cells were seeded at a density of 2 × 10^5 cells/cm^2 onto 24-well Millicell cell culture inserts (PC, 0.4-μm pore size, 0.6 cm^2 surface area, cat. #PIHP01250) (Millipore, Burlington, MA, USA), precoated with 0.2% bovine gelatin (Sigma-Aldrich, Saint Louis, MO, USA). After seeding, Caco-2 cells were grown in the same complete medium with re-feeding every 2–3 days until polarization of the monolayer occurred. The functional polarity of the monolayers was developed when transepithelial electrical resistance (TEER) between the apical and basolateral surfaces of the monolayers reached […] as measured by the electrical resistance system Millicell-ERS Voltohmmeter (Millipore, Burlington, MA, USA). Grown cell monolayers were used in transport and cytokine production experiments between the 21st and 29th days.
Peripheral blood mononuclear cells (PBMCs) from a healthy donor were purchased from the American Type Culture Collection (ATCC PCS-800-011). Blood monocytes were isolated from PBMCs by plastic adhesion. Mature monocyte-derived dendritic cells (moDCs) were generated in vitro from peripheral blood monocytes, according to Nair et al.. Briefly, monocytes were cultured in a humidified CO2-incubator (5% CO2, 37 °C) in the complete RPMI-1640 medium (Gibco) with 10% FBS, antibiotics, and supplemented with a cytokine cocktail containing 500 U/mL rhIL-4 and 800 U/mL rhGM-CSF (both Sci-Store, Moscow, Russia). On the third day, the medium was replaced by the same fresh medium with FBS, antibiotics, and the cytokine cocktail. Induction of maturation of the immature monocyte-derived dendritic cells was performed on the 5th day by replacing the medium with the complete RPMI-1640 medium (Gibco) with 10% FBS and antibiotics, supplemented with a cytokine cocktail containing 500 U/mL rhIL-4, 800 U/mL rhGM-CSF (both Sci-Store, Moscow, Russia), and 100 U/mL rhTNF-α (Sigma-Aldrich), and subjected to subsequent incubation of the culture for 4 more days.
Primary blood monocytes, moDCs, and NKT cells were seeded in 600 µL of complete RPMI-1640 with 10% Human AB serum (Capricorn Scientific, Ebsdorfergrund, Germany) and supplemented with 1X antibiotic–antimycotic solution into the wells of 24-well plates at a density of 3–7 × 10^5 cells/well 24 h before the experiment. Then, 24 h later, the medium in each well was replaced by the same medium with 1 µM of LL-37 for the sample wells or fresh medium alone for the control wells, and the permeable inserts with the Caco-2 monolayer with TEER > 400 Ω × cm^2, containing 400 μL of the complete medium in their apical chamber, were immediately placed into the appropriate wells. Also, inserts with the Caco-2 monolayer were placed in cell-free wells of 24-well plates in the same complete RPMI-1640 medium with or without 1 µM of LL-37 as controls. Cells were kept in a CO2-incubator (5% CO2, 37 °C) for another 24 h. Then, culture medium from each well was collected, centrifuged, and frozen at −70 °C.
To quantitatively evaluate a broad spectrum of analytes secreted by human cell cultures at the protein level, multiplex xMAP technology was used. […]

Question: Which IL-2 level (control 0.75) does the source give for “LL-37: the only human cathelicidin, host defense antimicrobial peptide of 37 a.a. residues, produced by solid-phase peptide synthesis” here?
Answer: 1.12 pg/mL

Question: And the FLT-3L level (control 0.87)?
Answer: 0.93 pg/mL

Question: What about the IL-3 level (control 0.91) of the same substance?
Answer: 0.91 pg/mL

Question: And the IFNg level (control 2)?
Answer: 2.28 pg/mL

Question: And the IL-18 level (control 2.49)?
Answer: 1.42 pg/mL

Question: And the IL-15 level (control 3.19)?
Answer: 3.42 pg/mL

Question: And the IL-4 level (control 4.19)?
Answer: 6.58 pg/mL

Question: What about the IL-5 level (control 4.46) of the same substance?
Answer: 2.93 pg/mL

Question: What about the TGF-a level (control 5.8) of the same substance?
Answer: 5.22 pg/mL

Question: And the IL-1b level (control 5.83)?
Answer: 5.83 pg/mL

Question: And the EGF level (control 6.26)?
Answer: 6.51 pg/mL

Question: What about the IL-9 level (control 7.45) of the same substance?
Answer: 7.45 pg/mL

Question: And the IFNa2 level (control 8.64)?
Answer: 10.16 pg/mL

Question: What about the TNFb level (control 9.34) of the same substance?
Answer: 15.39 pg/mL

Question: What about the GM-CSF level (control 10.7) of the same substance?
Answer: 8.75 pg/mL

Question: And the IL-1RA level (control 11.1)?
Answer: 13.57 pg/mL

Question: What about the G-CSF level (control 16.25) of the same substance?
Answer: 14.89 pg/mL

Question: What about the Fractalkine level (control 22.95) of the same substance?
Answer: 25.92 pg/mL

Question: What about the IL-6 level (control 23.82) of the same substance?
Answer: 26.83 pg/mL

Question: What about the IL-22 level (control 26.11, p = 0.10) of the same substance?
Answer: 37 pg/mL and 37.22 pg/mL

Question: What about the TNFa level (control 41.39) of the same substance?
Answer: 44.26 pg/mL

Question: What about the IL-13 level (control 43.59) of the same substance?
Answer: 50.71 pg/mL

Question: And the FGF-2 level (control 47.27)?
Answer: 47.27 pg/mL

Question: What about the “IL-12 (p40) level” value (control 57.35) of the same substance?
Answer: 55.01 pg/mL

Question: What about the GROa level (control 60.81) of the same substance?
Answer: 70.33 pg/mL

Question: What about the IL-27 level (control 63.66) of the same substance?
Answer: 70.72 pg/mL

Question: And the PDGF-AB/BB level (control 72.4)?
Answer: 83.52 pg/mL

Question: What about the IL-10 level (control 81.69, p = 0.0035) of the same substance?
Answer: 52 pg/mL and 52.63 pg/mL

Question: And the IP-10 level (control 90.92)?
Answer: 118.06 pg/mL

Question: What about the sCD40L level (control 95.47) of the same substance?
Answer: 95.47 pg/mL

Question: And the RANTES level (control 142.05)?
Answer: 223.43 pg/mL

Question: What about the M-GSF level (control 168.7) of the same substance?
Answer: 172.56 pg/mL

Question: And the PDGF-AA level (control 252.85)?
Answer: 237.55 pg/mL

Question: What about the MCP-3 level (control 376.42) of the same substance?
Answer: 372.12 pg/mL

Question: And the VEGFa level (control 723.09)?
Answer: 1786 pg/mL

Question: And the MIP-1a level (control 1271)?
Answer: 1487 pg/mL

Question: And the MIP-1b level (control 1340)?
Answer: 1789 pg/mL

Question: What about the MCP-1 level (control 2519) of the same substance?
Answer: 1925 pg/mL

Question: What about the IL-8 level (control 2799) of the same substance?
Answer: 3052 pg/mL

Question: And the MIG level (control 25746)?
Answer: 25834 pg/mL

Question: What about the IL-7 level (control <0.30) of the same substance?
Answer: <0.30↓ pg/ml

Question: And the IL-17A level (control <0.70)?
Answer: <0.70↓ pg/ml

Question: And the IL-1a level (control <1.30)?
Answer: <1.30↓ pg/ml

Question: What about the “IL-12 (p70) level” value (control <1.71) of the same substance?
Answer: <1.71↓ pg/ml

Question: What about the Eotaxin level (control <2.91) of the same substance?
Answer: 3.03 pg/mL

Question: And the IL-17F level (control <12.19)?
Answer: <12.19↓ pg/ml

Question: And the IL-17E/IL-25 level (control <19.43)?
Answer: <19.43↓ pg/ml

Question: And the MDC level (control >14590)?
Answer: 6291 pg/mL
